Measured values reported in patent US20250049751A1, “L-THEANINE AND TETRAHYDROCANNABINOL FORMULATION” (priority 2018, published 2025).
“Also recorded” adds a separate entry of the source.

What was measured:
[1] = system: rats; test: Sucrose preference testing for depression/anhedonia symptoms; type: in vivo, rat; settings: 2% sucrose vs. plain water, chronic THC 10 days twice daily i.p., L-Theanine 10 mg/kg, FIG. 2
Protocol: (§1) Four groups of ten rats were studied. The first group of rats was given twice daily intra-peritoneal doses of THC. The dosage regime was as follows
(§2) Immediately preceding each dose of THC, each rat was dosed with 10 mg/kg L-Theanine, administered intra-peritoneally.
(§3) The second group of rats was given the same doses of THC and no L-Theanine.
(§4) The third group of rats was given twice daily doses of L-Theanine but no THC.
(§5) The fourth group of rats was given neither THC nor L-Theanine.
(§6) All groups of rats were fed, watered and otherwise housed identically. At the end of the 10 day period, the rats were subject to a serious of tests.
Rats were water-restricted for 12 hrs prior to being given a 2-bottle choice test between a solution containing 2% sucrose vs. plain water. The amounts consumed from each bottle were measured over 24 hr for 4 days. A sucrose preference index was calculated for each rat and averaged across groups by taking the percentage of the volume of sucrose intake over the total volume of fluid intake over […].

[2] = system: rats; test: Paired-pulse (prepulse) inhibition test for cognitive filtering deficits; type: in vivo, rat; settings: L-Theanine 10 mg/kg; for prepulse inhibition / sensory filtering: both 30 and 100 msec between pre-pulse and test pulse, 10 days twice daily i.p. THC 2.5-10 mg/kg, relative to vehicle control rats, FIG. 1
Protocol: as §1, §2, §3, §4, §5, §6
Rats were acclimatized to the startle chambers (Med Associates) for 5 min over 3 days. On the last day of acclimation, rats were tested in an input/output (I/O) function consisting of 12 increasing startle pulses (from 65 to 120 dB, 5 dB increments) to determine the appropriate gain setting for each individual rat. The testing procedure consisted of the following phases: the acclimation phase, a habituation phase (Block 1), and PPI measurement (Block 2). During acclimation, rats were exposed to the chambers and white background noise (68 dB) for 5 min. During Block 1, 10 pulse alone trials (110 dB white noise, 20 ms duration) were delivered at 15-20 s inter-trial intervals. Block 2 consisted of […] presented 10 times in a pseudo-randomized order at 15-20 s intervals: 10 pulse-alone trials, and 10 of each of the three different prepulse-pulse trial types (72, 76, 80) with interstimulus intervals of 30 and 100 ms. Pulse-alone trials consisted of a startle stimulus-only presentation, whereas prepulse-pulse trials consisted of the presentation of a weaker non-startling prepulse (white noise, 20 ms duration) before the startling stimulus. PPI was calculated for each animal and each trial condition as PPI (%)=(1-average startle amplitude to pulse with prepulse/average startle amplitude to pulse only)×100.

[3] = system: rats; test: Novel object memory test (Novel Object Recognition); type: in vivo, rat; settings: 60 min delay, chronic THC 10 days twice daily i.p., L-Theanine 10 mg/kg, FIG. 3
Protocol: as §1, §2, §3, §4, §5, §6
The test sessions consisted of two 3-min trials. During the first trial (T1 acquisition trial), each rat was placed in the center of an arena containing two identical objects placed in the far corners 15 cm from the side wall. […] Times spent in exploration were videotaped with a video-tracking system (ANY-maze; Stoelting) and analyzed by an experimenter blind to the treatment conditions. Exploration times were recorded and used to calculate object recognition index [time spent with novel object/total time exploring both objects]

[4] = system: single dopamine neurons in the ventral tegmental area; test: In vivo single-unit electrophysiology recordings in the VTA; parameters: species or system rat; settings: rats; chronic THC exposure, L-Theanine 10 mg/kg; FIG. 4
Protocol: as §1, §2, §3, §4, §5, §6
(§7) Extracellular single-unit electrophysiological recordings were performed in vivo in adult (>PND 75) pretreated rats during adolescence. The recordings were taken from either putative glutamatergic (GLUT) PFC neurons or dopaminergic (DA) VTA neurons. Rats were anesthetized with urethane (1.4 g/kg, i.p., Sigma-Aldrich) and placed in a stereotaxic frame with body temperature maintained at 37° C. […] Extracellular signals were amplified (×5000) using a MultiClamp 700B amplifier (Molecular Devices), digitized at 25 kHz and recorded on the computer using a Digidata 1440 A and pClamp software (Molecular Devices). […]

[5] = system: glycogen-synthase-kinase-3B; test: Western Blot of GSK-3β protein expression; type: in vivo, rat; settings: rats, chronic THC exposure, L-Theanine 10 mg/kg
Protocol: (§8) FIG. 7. […] These molecular signaling effects are prevented by co-administration with L-Theanine (10 mg/kg), as measured in a Western Blot procedure.
as §1, §2, §3, §4, §5, §6

[6] = system: single neurons of the prefrontal cortex (PFC); test: In vivo single-unit electrophysiology recordings in the PFC (burst testing); parameters: species or system rat; settings: rats; chronic THC exposure, L-Theanine 10 mg/kg; FIG. 5
Protocol: as §1, §2, §3, §4, §5, §6
Extracellular single-unit electrophysiological recordings were performed in vivo in adult (>PND 75) pretreated rats during adolescence. The recordings were taken from either putative glutamatergic (GLUT) PFC neurons or dopaminergic (DA) VTA neurons. […] Extracellular signals were amplified (×5000) using a MultiClamp 700B amplifier (Molecular Devices), digitized at 25 kHz and recorded on the computer using a Digidata 1440 A and pClamp software (Molecular Devices). […]
Putative mPFC pyramidal cells were identified based on established criteria85: (1) firing frequency <10 Hz, (2) waveform shape, and (3) action potential duration >2.5 ms. […] After an individual putative pyramidal neuron was isolated, its spontaneous activity was recorded for 5 min. […]

[7] = system: Akt at serine 473; test: Protein expression of Akt at serine 473 in prefrontal cortex; type: in vivo; settings: prefrontal cortex of rat brain; chronic THC, L-Theanine 10 mg/kg; FIG. 8
[8] = system: Akt (protein kinase B) threanine308; test: Protein expression of Akt308 in prefrontal cortex; type: in vivo; settings: prefrontal cortex of rat brain; chronic THC, L-Theanine 10 mg/kg; FIG. 8
Protocol: FIG. 8. […] This effect is prevented by L-Theanine (10 mg/kg) co-administration.
as §1, §2, §3, §4, §5, §6

[9] = system: gamma-band activity in the rat prefrontal cortex; test: Local field potential recordings in prefrontal cortex (normalized power testing); type: in vivo; settings: chronic THC exposure, L-Theanine 10 mg/kg, 0-100 Hz range
Protocol: as §1, §2, §3, §4, §5, §6, §7

[10] = system: glycogen-synthase-kinase-3A; test: Western Blot of GSK-3α protein expression; type: in vivo, rat; settings: rats, chronic THC exposure, L-Theanine 10 mg/kg
Protocol: as §8, §1, §2, §3, §4, §5, §6

| Compound | sucrose preference (anhedonic, depression-like effects) [1] | prepulse inhibition / sensory filtering [2] | object recognition (object memory) [3] | activity rates of single dopamine neurons in the ventral tegmental area [4] | sensorimotor filtering (paired-pulse-inhibition) ([2]; 30 msec stimulus intervals, 72 and 84 decibel stimulus intensities, FIG. 1A) | sensorimotor filtering (paired-pulse-inhibition) ([2]; 100 msec stimulus intervals, 72, 76 and 80 decibel stimulus intensities, FIG. 1B) | protein expression levels of GSK-3β ([5]; FIG. 7) | protein expression levels of GSK-3β ([5]; FIG. 7, listed as THC-alone) | bursting pattern activity of single neurons of the prefrontal cortex [6] | effect on Akt at serine 473 [7] | protein expression levels of Akt308 [8] | gamma-band activity (local field potentials, normalized power) ([9]; FIG. 6) | gamma-band activity (local field potentials, normalized power) ([9]; FIG. 6, listed as THC only) | protein expression levels of GSK-3α ([10]; FIG. 7) | protein expression levels of GSK-3α ([10]; FIG. 7, listed as THC-alone) |
| --- | --- | --- | --- | --- | --- | --- | --- | --- | --- | --- | --- | --- | --- | --- | --- |
| CCNC(=O)CC[C@H](N)C(=O)O [L-Theanine] | no apparent effects on sucrose preference | no apparent effects on sensory filtering | no apparent effects on object recognition | – | – | – | – | – | – | – | – | – | – | – | – |
| CCCCCc1cc(O)c2c(c1)OC(C)(C)[C@@H]1CCC(C)=C[C@@H]21 [THC, Δ-9-tetrahydrocannabinol] | anhedonic (depression-like) effects; also recorded: strong sucrose preference reduction | strong deficits in the prepulse inhibition | significant object memory impairment; also recorded: strong reductions in object recognition | hyperactive activity rates | disruption of sensorimotor filtering | disruption of sensorimotor filtering | significant loss in the protein expression levels | significant decrease | hyperactive ‘bursting’ pattern activity state; also recorded: neuronal hyperactivity | no effect | significant downregulation in protein expression levels of Akt308 | significant decrease in gamma-band activity states | generally decreased activity | significant loss in the protein expression levels | significant decrease |
